We go through twelve compounds from ChEMBL document CHEMBL1201862, “PubChem BioAssay data set” (2004).

Holding throughout (test): inhibition of tumour cell growth, NCI panel, 48 h
Assay [1] relates to IGROV-1.
Assay [2] has as its system SNB-75.
Assay [3] relates to BT-549.
Assay [4] has as its system LOX IMVI.
Assay [5] relates to MDA-MB-231.
In assay [6] the test system is SF-268.
Assay [7] concerns SW-620.
The test system of assay [8] is OVCAR-8.
Assay [9] concerns HCC 2998.
The subject of assay [10] is SNB-19.
Assay [11] deals with SK-MEL-5.
Assay [12] relates to OVCAR-3.
The test system of assay [13] is SN12C.
Assay [14] deals with MOLT-4.
Assay [15] relates to OVCAR-5.
The test system of assay [16] is KM12.
The subject of assay [17] is Hs-578T.
Assay [18] deals with NCI-H460.
In assay [19] the test system is HOP-92.

Each structure is given as a SMILES string.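 Cultured in 96-well plates, cells were exposed to test compound for 48 hours across five concentrations. At the GI50, growth is halved.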 Activity calls are given as the source filed them. Cut-off read from the data, not from the text of the source: active = GI50 up to about 1.1 µM and inactive = higher.

With `Cc1ccc(CC2(OCCN(C)C)CCC(C(C)(C)C)CC2)cc1` (stereo unspecified), the GI50 is 6.5 µM (inactive) in assay [1]; 6.81 µM (inactive) in [2]; 4.61 µM (inactive) in [3]; 1.57 µM (inactive) in [4]; 6.01 µM (inactive) in assay [5]; 11.5 µM (inactive) in assay [6]. In addition, the GI50 in [7] was 2.25 µM (inactive); in [8], 4.62 µM (inactive); in [9], 1.98 µM (inactive); in assay [10] it was 4.39 µM (inactive); in [11], 1.58 µM (inactive); in assay [12], 9.68 µM (inactive). Further, the GI50 in assay [13] is 4.8 µM (inactive); in [14] it was 1.71 µM (inactive); in assay [15], 5.52 µM (inactive); in [16], 3.62 µM (inactive); in assay [17], 12.1 µM (inactive); in assay [18], 1.99 µM (inactive).
Regarding `CCCCC(=O)Nc1ccc2cc(C(=O)OC)c(=O)[nH]c2n1`, the GI50 in [1], in assay [2], in assay [3], in [4], in [5] and in [6] was > 100 µM (inactive) each time. In addition, the GI50 in assay [7], in [8], in assay [19], in assay [9], in assay [10] and in assay [11] was > 100 µM (inactive) each time. Further, the GI50 in [12], in assay [13], in assay [14], in assay [15], in [16] and in assay [18] was > 100 µM (inactive) throughout.
Turning to `CC1(C)CCN2C(=O)C34CCCC3CC21S4` (stereo unspecified), the GI50 in [1], in [3], in assay [4], in [5], in [6] and in assay [7] was > 100 µM (inactive) each time. Besides, the GI50 in assay [8], in assay [19], in assay [10], in [11], in assay [12] and in [13] was > 100 µM (inactive) each time. Moreover, the GI50 in assay [14], in assay [15], in assay [16] and in assay [17] was > 100 µM (inactive) each time.
With `CCSc1cc(C(=O)OC)c2n(c1=O)CCCC2`, the GI50 in assay [1], in assay [2], in assay [3], in assay [4], in [5] and in assay [6] was > 100 µM (inactive) each time. Also, the GI50 in assay [7], in [8], in [10], in [11], in assay [13] and in assay [14] was > 100 µM (inactive) throughout. In addition, the GI50 in assay [15], in [16] and in assay [17] was > 100 µM (inactive) in each case.
In the case of `O=C(/C=C/c1ccc(OCc2ccccc2)c(OCc2ccccc2)c1)OCc1ccccc1`, the GI50 in assay [1], in assay [2], in assay [3], in assay [4], in assay [5] and in assay [6] was > 100 µM (inactive) throughout. The GI50 in assay [7], in assay [8], in assay [19], in assay [9], in assay [10] and in assay [11] was > 100 µM (inactive) throughout. Moreover, the GI50 in assay [12], in assay [13], in [14], in [15], in assay [16] and in assay [18] was > 100 µM (inactive) throughout.
`CN(C)c1ccc(C(N)=O)cn1`: the GI50 in assay [1], in assay [2], in assay [3], in [4], in assay [5] and in assay [6] was > 100 µM (inactive) in each case. The GI50 in assay [7], in assay [8], in assay [9], in assay [10], in [11] and in assay [12] was > 100 µM (inactive) throughout. In addition, the GI50 in assay [13], in assay [14], in assay [15], in assay [16], in [17] and in assay [18] was > 100 µM (inactive) in each case.
On to `COc1ccc(OC)c(C(=O)c2cccc(C(=O)c3cc(OC)ccc3OC)n2)c1`, for which the GI50 in assay [1] was 38.8 µM (inactive); in [2], 19.9 µM (inactive); in assay [3], 22.9 µM (inactive); in assay [4], 25.5 µM (inactive); in assay [5], 58.7 µM (inactive); in assay [6], 63.4 µM (inactive). For the same compound, the GI50 in assay [7] is 39.6 µM (inactive); in assay [8], 50.1 µM (inactive); in [9], 46.9 µM (inactive); in assay [10] it was 43.3 µM (inactive); in [11], 15 µM (inactive); in assay [13], 57.1 µM (inactive). In addition, the GI50 in assay [14] is 30.8 µM (inactive); in [15], 30.5 µM (inactive); in assay [16], 33.9 µM (inactive); in [17], 27 µM (inactive); in assay [18], 36.3 µM (inactive).
For `CCCCCC/C=C\CCCCCCCCCc1c(O)c(OC)cc(O)c1CN(C)C`, the GI50 in assay [1] was 3.18 µM (inactive); in assay [2], 2.79 µM (inactive); in assay [3] it was 9.2 µM (inactive); in [4] it was 3.2 µM (inactive); in assay [5] it was 14.5 µM (inactive); in assay [6], > 10 µM (inactive). Further, the GI50 in [7] was 2.93 µM (inactive); in [8] it was 4.06 µM (inactive); in assay [10], 12.9 µM (inactive); in assay [11], 5.41 µM (inactive); in [12] it was 6.35 µM (inactive); in assay [13] it was 4.83 µM (inactive). In addition, the GI50 was 1.69 µM (inactive) in assay [14]; 14.5 µM (inactive) in [15]; 3.34 µM (inactive) in assay [16]; 2.7 µM (inactive) in assay [17]; 3.67 µM (inactive) in assay [18].
`CCOC(=O)C(=[N+]=[N-])C(=O)CN1C(=O)C2CC(C)=C(C)CC2C1O` (stereo unspecified): the GI50 in assay [1], in [2], in [3], in assay [4], in assay [6] and in [7] was > 100 µM (inactive) in each case. Moreover, the GI50 in assay [8], in [9], in assay [10], in assay [11], in [12] and in [14] was > 100 µM (inactive) throughout. Moreover, the GI50 in assay [15], in assay [16], in assay [17] and in [18] was > 100 µM (inactive) each time.
For `CCCCCc1c(CCCC)c(O)nc2nc(NC(=O)CCCC)ccc12`, the GI50 in [1], in assay [2], in [3], in [4], in assay [5] and in assay [6] was > 100 µM (inactive) in each case. In addition, the GI50 in [7], in assay [8], in [19], in assay [9], in [10] and in assay [11] was > 100 µM (inactive) each time. Also, the GI50 in assay [12], in assay [13], in assay [14], in [15], in [16] and in assay [18] was > 100 µM (inactive) each time.
Take `C=C1CCC([N+](=O)[O-])[C@](C)(N=O)CC[C@@H]2C1CC2(C)C` (stereo partly specified): the GI50 in [1] was 24.4 µM (inactive); in [2], 18.9 µM (inactive); in assay [3], 14.4 µM (inactive); in assay [4], 16.1 µM (inactive); in [6] it was 31.3 µM (inactive); in [7] it was 16.9 µM (inactive). The GI50 in [8] is 22.3 µM (inactive); in [19], 19.9 µM (inactive); in assay [10] it was 27.3 µM (inactive); in assay [11] it was 15.3 µM (inactive); in assay [12] it was 23.6 µM (inactive); in [13], 32.4 µM (inactive). The GI50 in [14] is 20.5 µM (inactive); in assay [15], 16.1 µM (inactive); in assay [16], 24.5 µM (inactive); in assay [17], 17.6 µM (inactive); in assay [18], 19.1 µM (inactive).
Turning to `CCC(=O)NCCc1c2c3c(ccnc3c3ncsc13)-c1ccccc1N2` [KUANONIAMINE C], the GI50 in [1] is 2.81 µM (inactive); in assay [2], 6.89 µM (inactive); in assay [3], 2.69 µM (inactive); in [4], 1.05 µM (active); in assay [5], 4.02 µM (inactive); in assay [6], 1.45 µM (inactive). For the same compound, the GI50 in [7] was 1.18 µM (inactive); in assay [8] it was 3.28 µM (inactive); in [9], 0.692 µM (active); in assay [10], 4.36 µM (inactive); in assay [11], 2.72 µM (inactive); in assay [12], 10.5 µM (inactive). Moreover, the GI50 in assay [13] was 0.724 µM (active); in assay [14], 1.4 µM (inactive); in assay [15], 8.17 µM (inactive); in [16] it was 2.33 µM (inactive); in assay [17], 0.368 µM (active); in assay [18], 1.16 µM (inactive).
